Assay: aqueous solubility (PBS, pH 7.4), shake flask
Assay type: physicochemical
Method: The aqueous solubility (PBS, pH 7.4) was determined at Eurofins, Cerep, Panlabs according to C. A. Lipinski et al. Adv. Drug Del. Rev. 1997:46, 3.
Measurement of the aqueous solubility was performed according to Lipinski, C. A. et al. Adv. Drug Del. Rev. 1997:46, 3. The relevant information from the literature is described below.
In addition, chromatographic purity (%) was defined as the peak area of the principal peak relative to the total integrated peak area in the HPLC chromatogram of the calibration standard.

With `Cc1nc(N(C)C(=O)Cc2ccc(-c3cc(F)ccc3F)cc2)sc1S(C)(=N)=O` (racemic) [Example 7, 2-(2′,5′-Difluoro-[1,1′-biphenyl]-4-yl)-N-methyl-N-(4-methyl-5-(S-methylsulfonimidoyl)thiazol-2-yl)acetamide] the “solubility in comparison to Example 87 (WO2001/047904)” value was “significantly increased solubility (at least one order of magnitude)”.

Source: patent US12527778B2, “Enantiomers of a series of antiviral compounds” (Innovative Molecules GmbH, priority 2017, dated 2026)
